Experimental data: ChEMBL document CHEMBL5030558, “Optimization and Evaluation of Novel Antifungal Agents for the Treatment of Fungal Infection” (J Med Chem, 2021)
Converted amounts (≈) assume the structure as drawn. The source made the active and inactive calls. The rule behind the calls is not given here.

What was measured:
Trichophyton rubrum [1] = test: Fungicidal activity against Trichophyton rubrum KCCM60450 at 8 times after 24 hrs by time-kill kinetics assay; assay type: functional, organism-based
[2] = system: Trichophyton mentagrophytes; test: Fungicidal activity against Trichophyton mentagrophytes KCCM60449 at 8 times after 24 hrs by time-kill kinetics assay; assay type: functional, organism-based
[3] = Stability in human liver microsomes assessed as parent compound remaining after 30 mins; assay type: ADME, Microsome; conditions: read-out: Stability
Cryptococcus neoformans [4] = test: Antifungal activity against Cryptococcus neoformans H99 assessed as reduction in fungal growth incubated for 72 hrs by CLSI based broth microdilution method; assay type: functional
[5] = Stability in rat liver microsomes assessed as parent compound remaining after 30 mins; assay type: ADME, Microsome; conditions: microsomes, 0.5 h
Nakaseomyces glabratus [6] = test: Antifungal activity against Candida glabrata BG2 assessed as reduction in fungal growth incubated for 48 hrs by CLSI based broth microdilution method; assay type: functional
Candida albicans [7] = test: Antifungal activity against Candida albicans ATCC SC5314 assessed as reduction in fungal growth incubated for 48 hrs by CLSI based broth microdilution method; assay type: functional
[8] = Stability in mouse liver microsomes assessed as parent compound remaining after 30 mins; assay type: ADME, Microsome; conditions: microsomes, 0.5 h
Aspergillus fumigatus = test: Antifungal activity against Aspergillus fumigatus AF293 assessed as reduction in fungal growth incubated for 48 hrs by CLSI based broth microdilution method; assay type: functional
CYP2C19 = CYP2C19 (Homo sapiens, UniProt P33261); test: Inhibition of CYP2C19 (unknown origin) at 10 uM relative to control; assay type: ADME
CYP3A4 = CYP3A4 (Homo sapiens, UniProt P08684); test: Inhibition of CYP3A4 (unknown origin) at 10 uM relative to control; assay type: ADME
CYP2D6 = CYP2D6 (Homo sapiens, UniProt P10635); test: Inhibition of CYP2D6 (unknown origin) at 10 uM relative to control; assay type: ADME
Cytochrome P450 3A4 = Cytochrome P450 3A4 (Homo sapiens, UniProt P08684); test: Inhibition of CYP3A4 (unknown origin) relative to control; assay type: ADME
Cytochrome P450 2C9 = Cytochrome P450 2C9 (Homo sapiens, UniProt P11712); test: Inhibition of CYP2C9 (unknown origin) relative to control; assay type: ADME
Cytochrome P450 2D6 = Cytochrome P450 2D6 (Homo sapiens, UniProt P10635); test: Inhibition of CYP2D6 (unknown origin); assay type: ADME
[9] = Stability in human plasma assessed as parent compound remaining after 30 to 120 mins; assay type: ADME, cell-free; conditions: time 30-120 min
[10] = Stability in rat plasma assessed as parent compound remaining after 30 to 120 mins; assay type: ADME, cell-free; conditions: time 30-120 min
Cryptococcus neoformans [11] = test: Fungicidal activity against Cryptococcus neoformans H99 at 8 times of MIC after 12 hrs by time-kill kinetics assay; assay type: functional, organism-based
Trichophyton rubrum [12] = test: Ex vivo antifungal activity against Trichophyton rubrum KCCM60450 infected in human nail assessed as reduction in ATP level at 10 % w/w after 24 hrs; assay type: functional; design: scale not given: the % may be the effect or the level left
Nakaseomyces glabratus [13] = test: Induction of drug resistance in Candida glabrata BG2 assessed as increase in ECZ IC50 at 8 times IC50 after 4 days; assay type: functional, organism-based; conditions: BG2, 96 h
Candida albicans [14] = test: Induction of drug resistance in Candida albicans ATCC SC5314 assessed as increase in EZC IC50 at 8 time IC50 after 7 days; assay type: functional, organism-based; conditions: time 7.0 day
Candida albicans [15] = test: Induction of drug resistance in Candida albicans ATCC SC5314 assessed as increase in EZC IC50 at 8 time IC50 after 35 days; assay type: functional, organism-based; conditions: time 35.0 day
Candida albicans [16] = test: Induction of drug resistant in Candida albicans ATCC SC5314 assessed as increase in EZC IC50 at 16 times IC50; assay type: functional, organism-based
Nakaseomyces glabratus [17] = test: Induction of drug resistant in Candida glabrata BG2 assessed as increase in EZC IC50 at 16 times IC50; assay type: functional, organism-based
Cryptococcus neoformans [18] = test: Fungicidal activity against Cryptococcus neoformans H99 at 8 times of MIC after 24 hrs by time-kill kinetics assay; assay type: functional, organism-based
Nakaseomyces glabratus [19] = test: Induction of drug resistance in Candida glabrata BG2 assessed as increase in FCZ IC50 at 8 times IC50 after 23 days; assay type: functional, organism-based; conditions: BG2, 552 h
Candida albicans [20] = test: Induction of drug resistance in Candida albicans ATCC SC5314 assessed as increase in FCZ IC50 at 8 times IC50 measured after 5 to 22 days; assay type: functional, organism-based
Candida albicans [21] = test: Induction of drug resistant in Candida albicans ATCC SC5314 assessed as increase in FCZ IC50 at 16 times IC50; assay type: functional, organism-based
Nakaseomyces glabratus [22] = test: Induction of drug resistant in Candida glabrata BG2 assessed as increase in FCZ IC50 at 16 times IC50; assay type: functional, organism-based

Cytochrome P450 3A4, sequence (P08684 whole entry): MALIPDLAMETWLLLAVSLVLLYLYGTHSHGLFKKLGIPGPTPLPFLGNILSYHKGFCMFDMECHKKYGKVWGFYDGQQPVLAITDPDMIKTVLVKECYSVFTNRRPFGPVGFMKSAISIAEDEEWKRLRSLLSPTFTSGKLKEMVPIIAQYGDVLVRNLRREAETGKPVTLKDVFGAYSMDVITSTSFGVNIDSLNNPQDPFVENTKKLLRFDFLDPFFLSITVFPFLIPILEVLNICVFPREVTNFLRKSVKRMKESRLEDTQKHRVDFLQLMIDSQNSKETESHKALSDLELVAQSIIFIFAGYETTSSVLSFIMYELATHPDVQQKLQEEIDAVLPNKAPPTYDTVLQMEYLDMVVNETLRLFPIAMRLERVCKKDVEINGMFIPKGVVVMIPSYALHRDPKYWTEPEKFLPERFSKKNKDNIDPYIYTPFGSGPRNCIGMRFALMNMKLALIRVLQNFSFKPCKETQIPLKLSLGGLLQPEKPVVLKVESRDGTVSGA
Cytochrome P450 2C9, sequence (P11712 whole entry): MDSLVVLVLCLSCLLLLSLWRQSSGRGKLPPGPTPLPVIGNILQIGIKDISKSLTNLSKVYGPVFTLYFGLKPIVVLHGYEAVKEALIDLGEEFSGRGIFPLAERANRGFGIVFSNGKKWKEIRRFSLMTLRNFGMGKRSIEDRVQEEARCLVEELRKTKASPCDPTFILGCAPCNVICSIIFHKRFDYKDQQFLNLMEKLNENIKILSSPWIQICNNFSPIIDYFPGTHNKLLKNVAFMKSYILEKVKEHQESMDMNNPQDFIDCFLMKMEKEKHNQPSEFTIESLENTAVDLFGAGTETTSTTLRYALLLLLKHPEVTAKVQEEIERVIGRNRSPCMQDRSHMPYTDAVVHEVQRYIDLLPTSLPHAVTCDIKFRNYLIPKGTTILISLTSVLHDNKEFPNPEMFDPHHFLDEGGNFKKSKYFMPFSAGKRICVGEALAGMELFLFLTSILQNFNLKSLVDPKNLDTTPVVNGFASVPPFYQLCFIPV
Cytochrome P450 2D6, sequence (P10635 whole entry): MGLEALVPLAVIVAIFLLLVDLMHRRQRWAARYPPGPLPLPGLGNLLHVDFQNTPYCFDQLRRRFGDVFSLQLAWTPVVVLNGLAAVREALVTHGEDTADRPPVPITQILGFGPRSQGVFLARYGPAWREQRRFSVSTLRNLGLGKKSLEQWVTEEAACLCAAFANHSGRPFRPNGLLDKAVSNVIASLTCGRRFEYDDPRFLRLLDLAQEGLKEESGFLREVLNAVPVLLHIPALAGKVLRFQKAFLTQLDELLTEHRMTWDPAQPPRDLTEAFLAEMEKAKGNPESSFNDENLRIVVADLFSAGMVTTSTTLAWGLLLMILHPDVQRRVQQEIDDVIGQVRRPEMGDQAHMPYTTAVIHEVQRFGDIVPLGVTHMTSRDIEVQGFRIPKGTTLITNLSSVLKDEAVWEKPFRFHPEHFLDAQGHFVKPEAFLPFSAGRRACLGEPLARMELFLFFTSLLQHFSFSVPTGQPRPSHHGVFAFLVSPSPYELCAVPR
CYP2D6, sequence (P10635 whole entry): as above
CYP2C19, sequence (P33261 whole entry): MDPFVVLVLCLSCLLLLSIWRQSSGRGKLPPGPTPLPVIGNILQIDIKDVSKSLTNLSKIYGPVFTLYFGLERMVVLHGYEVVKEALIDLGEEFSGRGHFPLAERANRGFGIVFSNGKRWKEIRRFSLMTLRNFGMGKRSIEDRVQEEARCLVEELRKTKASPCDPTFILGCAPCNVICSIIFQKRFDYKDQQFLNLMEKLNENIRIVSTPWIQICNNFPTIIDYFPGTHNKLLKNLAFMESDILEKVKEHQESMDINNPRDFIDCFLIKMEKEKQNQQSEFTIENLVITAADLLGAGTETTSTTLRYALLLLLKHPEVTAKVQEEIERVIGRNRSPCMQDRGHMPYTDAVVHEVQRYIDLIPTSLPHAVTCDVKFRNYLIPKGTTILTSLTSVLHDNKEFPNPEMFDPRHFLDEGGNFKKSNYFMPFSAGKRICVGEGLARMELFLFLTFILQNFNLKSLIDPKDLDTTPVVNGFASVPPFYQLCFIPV
CYP3A4, sequence (P08684 whole entry): as the sequence (P08684 whole entry) above

| Structure (SMILES) | MIC (Cryptococcus neoformans [4]) | MIC (Nakaseomyces glabratus [6]) | MIC (Candida albicans [7]) | MIC (Aspergillus fumigatus) | further results |
| --- | --- | --- | --- | --- | --- |
| CN(C/C=C/C#CC(C)(C)C)Cc1cccc2ccccc12 | – | – | – | – | Activity (Trichophyton rubrum [1]): inactive; Activity [2]: inactive |
| CCCCC(NC)C(=O)NCCc1ccc(-c2ccc(Cl)c(Cl)c2)cc1.Cl (racemic) | 4 µg/mL | 8 µg/mL | 8 µg/mL | 8 µg/mL | remaining at 0.5 h [3]: > 85%; Stability [5]: Unstable; Stability [8]: Unstable |
| CCCCC(NC)C(=O)NCCc1ccc(-c2ccc(OC(F)(F)F)cc2)cc1.Cl (racemic) | 4 µg/mL | 16 µg/mL | 16 µg/mL | 8 µg/mL | – |
| Cl.O=C(NCCc1ccc(-c2ccc(C(F)(F)F)cc2)cc1)C1CCNC1 (racemic) | 64 µg/mL | 64 µg/mL | 32 µg/mL | 64 µg/mL | – |
| CCCCC(N)C(=O)NCCc1ccc(-c2ccc(Cl)c(Cl)c2)cc1.Cl (racemic) | 1 µg/mL | 4 µg/mL | 2 µg/mL | 4 µg/mL | remaining at 0.5 h [3]: > 85%; inhibition at 10 µM (CYP2C19): > 70%; inhibition at 10 µM (CYP3A4): > 70%; inhibition at 10 µM (CYP2D6): > 70% |
| CCCCC(NC)C(=O)NCCc1ccc(-c2ccc(C(F)(F)F)cc2)cc1.Cl (racemic) | 4 µg/mL | 16 µg/mL | 16 µg/mL | 16 µg/mL | – |
| CCCC(N)C(=O)NCCc1ccc(-c2ccc(F)c(F)c2)cc1.Cl (racemic) | 32 µg/mL | 64 µg/mL | 16 µg/mL | 64 µg/mL | remaining at 0.5 h [3]: > 85% |
| CCCC(N)C(=O)NCCc1ccc(OCc2ccc(C(F)(F)F)cc2)cc1.Cl (racemic) | 16 µg/mL | 32 µg/mL | 16 µg/mL | 32 µg/mL | inhibition (INH) (Cytochrome P450 3A4): > 70%; inhibition (INH) (Cytochrome P450 2C9): > 70% |
| CCCC(NC)C(=O)NCCc1ccc(-c2ccc(C(F)(F)F)cc2)cc1.Cl (racemic) | 16 µg/mL | 32 µg/mL | 32 µg/mL | 32 µg/mL | inhibition (INH) (Cytochrome P450 3A4): Not Active; inhibition (INH) (Cytochrome P450 2D6): Active; inhibition (INH) (Cytochrome P450 2C9): Not Active |
| CN1CCCCC1C(=O)NCCc1ccc(-c2ccc(Cl)c(Cl)c2)cc1 (racemic) | 8 µg/mL (≈ 20.4 µM) | 16 µg/mL (≈ 40.9 µM) | 128 µg/mL (≈ 327 µM) | 16 µg/mL (≈ 40.9 µM) | – |
| CN1CCCC1C(=O)NCCc1ccc(-c2ccc(Cl)c(Cl)c2)cc1 (racemic) | 8 µg/mL (≈ 21.2 µM) | 16 µg/mL (≈ 42.4 µM) | 128 µg/mL (≈ 339 µM) | 16 µg/mL (≈ 42.4 µM) | – |
| CC(=O)N1CCC(C(=O)NCCc2ccc(-c3ccc(C(F)(F)F)cc3)cc2)C1 (racemic) | > 128 µg/mL | > 128 µg/mL | > 128 µg/mL | > 128 µg/mL | – |
| Cl.O=C(NCCc1ccc(-c2ccc(C(F)(F)F)cc2)cc1)C1CCCN1 (racemic) | 16 µg/mL | 32 µg/mL | 32 µg/mL | 32 µg/mL | – |
| Cl.O=C(NCCc1ccc(-c2ccc(Cl)c(Cl)c2)cc1)C1CCCCN1 (racemic) | 8 µg/mL | 16 µg/mL | 16 µg/mL | 16 µg/mL | – |
| CC(=O)N1CCCC1C(=O)NCCc1ccc(-c2ccc(C(F)(F)F)cc2)cc1 (racemic) | > 128 µg/mL | > 128 µg/mL | > 128 µg/mL | > 128 µg/mL | – |
| CCCC(NC)C(=O)NCCc1ccc(-c2ccc(Cl)c(Cl)c2)cc1.Cl (racemic) | 4 µg/mL | 16 µg/mL | 16 µg/mL | 8 µg/mL | remaining at 0.5 h [3]: > 85%; Stability [5]: Unstable; Stability [9]: > 95%; Stability [10]: > 95%; Stability [8]: Unstable |
| C[C@@H]1[C@H](O)[C@@H](C)/C=C/C=C/C=C/C=C/C=C/C=C/C=C/[C@H](O[C@@H]2O[C@H](C)[C@@H](O)[C@H](N)[C@@H]2O)C[C@@H]2O[C@](O)(C[C@@H](O)C[C@@H](O)[C@H](O)CC[C@@H](O)C[C@@H](O)CC(=O)O[C@H]1C)C[C@H](O)[C@H]2C(=O)O [AMPHOTERICIN B] | 0.25 µg/mL (≈ 0.271 µM) | 0.5 µg/mL (≈ 0.541 µM) | 0.25 µg/mL (≈ 0.271 µM) | 1 µg/mL (≈ 1.08 µM) | Activity (Cryptococcus neoformans [11]): Active |
| Cc1cc(C2CCCCC2)n(O)c(=O)c1 [CICLOPIROX] | – | – | – | – | Activity (Trichophyton rubrum [1]): inactive; Activity (Trichophyton rubrum [12]): 24.21%; Activity [2]: inactive |
| C=C1CCN([C@H](C)[C@](O)(Cn2cncn2)c2ccc(F)cc2F)CC1 [EFINACONAZOLE] | – | – | – | – | IC50 (Nakaseomyces glabratus [13]): 1 µg/mL (≈ 2.87 µM); Activity (Trichophyton rubrum [12]): 31.9%; Activity (Candida albicans [14]): Active; Activity (Candida albicans [15]): Active; Activity (Candida albicans [16]): Active; Activity (Nakaseomyces glabratus [17]): Active; Activity (Cryptococcus neoformans [18]): inactive |
| OC(Cn1cncn1)(Cn1cncn1)c1ccc(F)cc1F [FLUCONAZOLE] | – | – | – | – | IC50 (Nakaseomyces glabratus [19]): 64 µg/mL (≈ 209 µM); IC50 (Candida albicans [20]): 64 µg/mL (≈ 209 µM); Activity (Candida albicans [21]): Active; Activity (Nakaseomyces glabratus [22]): Active; Activity (Cryptococcus neoformans [18]): inactive |
